The source made the active and inactive calls.
Tests used:
[1] = target: Sigma intracellular receptor 2 (Homo sapiens, UniProt Q5BJF2); test: GPCRScan assay: inhibition of Sigma 2; set-up: radioligand conc. used [nm] 5.0, parental cells HEKT
[2] = target: MAP kinase-interacting serine/threonine-protein kinase 1 (Homo sapiens) (UniProt Q9BUB5); settings: Compound concentration 1000.0 nM
[3] = target: Serine/threonine-protein kinase ICK (Homo sapiens) (UniProt Q9UPZ9); settings: Compound concentration 1000.0 nM
[4] = target: Calcium-dependent protein kinase 1 (Plasmodium falciparum) (UniProt P62344); settings: Compound concentration 1000.0 nM
Sequence of Calcium-dependent protein kinase 1 (Plasmodium falciparum) (P62344 2-524 limits assumed): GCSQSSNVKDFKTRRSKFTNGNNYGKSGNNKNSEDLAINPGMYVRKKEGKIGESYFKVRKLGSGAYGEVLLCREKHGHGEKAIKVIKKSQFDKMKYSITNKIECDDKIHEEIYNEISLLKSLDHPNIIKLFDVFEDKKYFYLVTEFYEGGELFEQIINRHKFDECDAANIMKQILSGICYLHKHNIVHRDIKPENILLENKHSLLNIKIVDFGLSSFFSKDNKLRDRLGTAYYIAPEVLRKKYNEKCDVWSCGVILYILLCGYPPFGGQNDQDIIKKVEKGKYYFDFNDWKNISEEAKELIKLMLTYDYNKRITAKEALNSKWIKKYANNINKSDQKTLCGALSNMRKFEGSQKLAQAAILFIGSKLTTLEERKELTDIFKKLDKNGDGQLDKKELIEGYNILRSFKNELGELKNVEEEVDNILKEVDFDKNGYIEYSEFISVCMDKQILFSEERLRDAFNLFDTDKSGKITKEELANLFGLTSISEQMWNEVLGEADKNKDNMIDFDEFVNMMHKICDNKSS

[5] = target: Cyclin-G-associated kinase (Homo sapiens) (UniProt O14976); settings: Compound concentration 1000.0 nM
[6] = target: Proto-oncogene tyrosine-protein kinase receptor Ret (Homo sapiens) (UniProt P07949); settings: Compound concentration 1000.0 nM
Sequence of Proto-oncogene tyrosine-protein kinase receptor Ret (Homo sapiens) (P07949 whole entry): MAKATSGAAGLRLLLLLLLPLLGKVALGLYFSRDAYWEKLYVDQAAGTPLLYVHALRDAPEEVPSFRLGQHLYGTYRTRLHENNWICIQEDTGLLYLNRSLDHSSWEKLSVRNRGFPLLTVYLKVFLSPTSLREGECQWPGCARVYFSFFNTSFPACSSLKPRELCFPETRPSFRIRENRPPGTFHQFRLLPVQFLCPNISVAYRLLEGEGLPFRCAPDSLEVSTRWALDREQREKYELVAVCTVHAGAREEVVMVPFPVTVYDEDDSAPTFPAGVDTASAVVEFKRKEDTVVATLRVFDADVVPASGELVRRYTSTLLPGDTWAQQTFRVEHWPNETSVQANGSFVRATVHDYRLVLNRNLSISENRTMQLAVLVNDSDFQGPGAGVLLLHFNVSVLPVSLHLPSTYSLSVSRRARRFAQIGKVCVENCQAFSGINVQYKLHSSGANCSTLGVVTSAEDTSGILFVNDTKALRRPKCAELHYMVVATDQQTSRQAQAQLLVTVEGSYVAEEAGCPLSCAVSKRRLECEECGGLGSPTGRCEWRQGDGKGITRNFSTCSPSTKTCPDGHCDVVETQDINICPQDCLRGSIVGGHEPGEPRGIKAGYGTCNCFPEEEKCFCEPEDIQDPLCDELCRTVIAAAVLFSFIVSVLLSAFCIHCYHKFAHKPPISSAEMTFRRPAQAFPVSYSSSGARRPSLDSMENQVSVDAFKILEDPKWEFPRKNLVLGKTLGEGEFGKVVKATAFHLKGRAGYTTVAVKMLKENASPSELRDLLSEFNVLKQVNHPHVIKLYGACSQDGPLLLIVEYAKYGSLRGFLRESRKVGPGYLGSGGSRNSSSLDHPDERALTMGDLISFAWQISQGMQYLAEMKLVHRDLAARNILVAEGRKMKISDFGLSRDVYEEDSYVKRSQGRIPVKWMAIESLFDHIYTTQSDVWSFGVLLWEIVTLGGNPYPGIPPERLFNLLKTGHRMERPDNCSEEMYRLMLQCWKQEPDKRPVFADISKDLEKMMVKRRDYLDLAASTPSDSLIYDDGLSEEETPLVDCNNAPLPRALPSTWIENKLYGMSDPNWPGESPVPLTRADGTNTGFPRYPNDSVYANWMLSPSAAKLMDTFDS

[7] = system: Receptor-type tyrosine-protein kinase FLT3 (Homo sapiens), P36888 [N841I]; settings: Compound concentration 1000.0 nM
[8] = target: Atypical kinase COQ8B, mitochondrial (Homo sapiens) (UniProt Q96D53); settings: Compound concentration 1000.0 nM
[9] = target: Activin receptor type-1B (Homo sapiens) (UniProt P36896); settings: Compound concentration 1000.0 nM
[10] = system: Hepatocyte growth factor receptor (Homo sapiens), P08581 [M1250T]; settings: Compound concentration 1000.0 nM
[11] = target: Dual specificity protein kinase CLK3 (Homo sapiens) (UniProt P49761); settings: Compound concentration 1000.0 nM
[12] = target: Calcium/calmodulin-dependent protein kinase kinase 1 (Homo sapiens) (UniProt Q8N5S9); settings: Compound concentration 1000.0 nM
[13] = target: SRSF protein kinase 2 (Homo sapiens) (UniProt P78362); settings: Compound concentration 1000.0 nM
[14] = target: Vascular endothelial growth factor receptor 3 (Homo sapiens) (UniProt P35916); settings: Compound concentration 1000.0 nM
[15] = target: Protein-tyrosine kinase 6 (Homo sapiens) (UniProt Q13882); settings: Compound concentration 1000.0 nM
Sequence of Protein-tyrosine kinase 6 (Homo sapiens) (Q13882 whole entry, looked up): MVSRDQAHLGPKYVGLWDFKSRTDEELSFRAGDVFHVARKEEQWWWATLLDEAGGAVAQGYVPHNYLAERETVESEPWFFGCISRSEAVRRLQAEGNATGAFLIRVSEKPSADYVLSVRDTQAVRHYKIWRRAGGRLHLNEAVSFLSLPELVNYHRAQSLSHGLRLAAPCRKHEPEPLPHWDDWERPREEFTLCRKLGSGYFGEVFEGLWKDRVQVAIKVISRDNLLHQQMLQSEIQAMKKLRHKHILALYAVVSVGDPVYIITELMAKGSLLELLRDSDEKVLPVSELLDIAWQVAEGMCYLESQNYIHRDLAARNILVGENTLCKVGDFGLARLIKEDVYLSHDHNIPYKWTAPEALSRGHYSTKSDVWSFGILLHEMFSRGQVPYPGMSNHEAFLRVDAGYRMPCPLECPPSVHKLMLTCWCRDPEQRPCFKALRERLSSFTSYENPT

[16] = system: Receptor-type tyrosine-protein kinase FLT3 (Homo sapiens), P36888 [D835Y]; settings: Compound concentration 1000.0 nM
[17] = target: Receptor tyrosine-protein kinase erbB-4 (Homo sapiens) (UniProt Q15303); settings: Compound concentration 1000.0 nM
[18] = target: Proto-oncogene tyrosine-protein kinase Src (Homo sapiens) (UniProt P12931); settings: Compound concentration 1000.0 nM
[19] = target: Serine/threonine-protein kinase Chk2 (Homo sapiens) (UniProt O96017); settings: Compound concentration 1000.0 nM
[20] = target: Serine/threonine-protein kinase 32C (Homo sapiens) (UniProt Q86UX6); settings: Compound concentration 1000.0 nM
[21] = target: Dual specificity mitogen-activated protein kinase kinase 1 (Homo sapiens) (UniProt Q02750); settings: Compound concentration 1000.0 nM
[22] = target: Casein kinase I isoform gamma-3 (Homo sapiens) (UniProt Q9Y6M4); settings: Compound concentration 1000.0 nM
[23] = target: Aurora kinase A (Homo sapiens) (UniProt O14965); settings: Compound concentration 1000.0 nM
[24] = system: Phosphatidylinositol 4,5-bisphosphate 3-kinase catalytic subunit alpha isoform (Homo sapiens), P42336 [E545K]; settings: Compound concentration 1000.0 nM
[25] = target: Ephrin type-B receptor 3 (Homo sapiens) (UniProt P54753); settings: Compound concentration 1000.0 nM
[26] = target: Receptor tyrosine-protein kinase erbB-3 (Homo sapiens) (UniProt P21860); settings: Compound concentration 1000.0 nM
[27] = target: Mitogen-activated protein kinase kinase kinase 1 (Homo sapiens) (UniProt Q13233); settings: Compound concentration 1000.0 nM
Sequence of Mitogen-activated protein kinase kinase kinase 1 (Homo sapiens) (Q13233 whole entry): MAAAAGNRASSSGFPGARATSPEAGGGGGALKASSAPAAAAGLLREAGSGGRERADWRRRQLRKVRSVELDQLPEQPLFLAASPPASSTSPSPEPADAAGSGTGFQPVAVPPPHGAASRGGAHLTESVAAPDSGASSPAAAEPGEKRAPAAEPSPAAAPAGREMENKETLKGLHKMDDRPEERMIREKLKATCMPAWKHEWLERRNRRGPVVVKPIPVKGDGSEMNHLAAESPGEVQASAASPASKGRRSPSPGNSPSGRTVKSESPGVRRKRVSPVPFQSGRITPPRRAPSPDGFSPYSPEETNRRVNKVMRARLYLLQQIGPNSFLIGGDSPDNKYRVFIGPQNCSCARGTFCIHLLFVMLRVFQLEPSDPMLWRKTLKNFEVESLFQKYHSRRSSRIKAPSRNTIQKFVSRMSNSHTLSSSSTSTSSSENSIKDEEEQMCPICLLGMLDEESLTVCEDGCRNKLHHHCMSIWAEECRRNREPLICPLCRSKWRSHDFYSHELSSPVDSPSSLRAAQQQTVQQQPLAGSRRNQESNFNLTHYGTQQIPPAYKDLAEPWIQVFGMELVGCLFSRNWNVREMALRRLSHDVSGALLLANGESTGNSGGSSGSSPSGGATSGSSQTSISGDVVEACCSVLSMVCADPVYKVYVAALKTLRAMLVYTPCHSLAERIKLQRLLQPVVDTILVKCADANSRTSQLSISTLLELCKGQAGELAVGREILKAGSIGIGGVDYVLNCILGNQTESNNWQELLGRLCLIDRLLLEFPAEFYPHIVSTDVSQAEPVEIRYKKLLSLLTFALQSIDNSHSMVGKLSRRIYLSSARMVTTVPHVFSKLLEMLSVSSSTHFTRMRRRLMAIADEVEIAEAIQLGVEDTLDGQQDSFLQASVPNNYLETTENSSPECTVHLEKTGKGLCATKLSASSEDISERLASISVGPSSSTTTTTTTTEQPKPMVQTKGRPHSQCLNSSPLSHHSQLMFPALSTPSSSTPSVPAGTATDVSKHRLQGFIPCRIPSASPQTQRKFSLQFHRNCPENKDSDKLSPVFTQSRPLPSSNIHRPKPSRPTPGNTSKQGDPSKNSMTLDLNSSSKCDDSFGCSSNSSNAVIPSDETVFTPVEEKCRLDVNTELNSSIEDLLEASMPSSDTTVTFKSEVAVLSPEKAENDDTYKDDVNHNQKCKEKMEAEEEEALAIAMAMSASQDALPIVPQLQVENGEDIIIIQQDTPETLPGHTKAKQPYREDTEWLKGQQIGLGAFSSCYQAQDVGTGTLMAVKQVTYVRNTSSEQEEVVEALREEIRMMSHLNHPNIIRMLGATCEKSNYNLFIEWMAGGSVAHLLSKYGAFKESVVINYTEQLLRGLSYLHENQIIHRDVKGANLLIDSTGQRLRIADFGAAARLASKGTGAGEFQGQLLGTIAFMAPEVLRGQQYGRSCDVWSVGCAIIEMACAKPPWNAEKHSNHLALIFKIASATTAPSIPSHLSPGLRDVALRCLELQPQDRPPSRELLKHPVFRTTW

[28] = target: ALK tyrosine kinase receptor (Homo sapiens) (UniProt Q9UM73); settings: Compound concentration 1000.0 nM
[29] = system: Tyrosine-protein kinase ABL1 (Homo sapiens), P00519 [F317L]; settings: Compound concentration 1000.0 nM
[30] = target: Receptor-interacting serine/threonine-protein kinase 2 (Homo sapiens) (UniProt O43353); settings: Compound concentration 1000.0 nM
[31] = target: Amyloid-beta precursor protein (Homo sapiens, UniProt P05067); test: Aβ42 inhibition assay
[32] = target: Serine/threonine-protein kinase OSR1 (Homo sapiens) (UniProt O95747); settings: Compound concentration 1000.0 nM
[33] = target: Mitogen-activated protein kinase kinase kinase 11 (Homo sapiens) (UniProt Q16584); settings: Compound concentration 1000.0 nM
Sequence of Mitogen-activated protein kinase kinase kinase 11 (Homo sapiens) (Q16584 whole entry, looked up): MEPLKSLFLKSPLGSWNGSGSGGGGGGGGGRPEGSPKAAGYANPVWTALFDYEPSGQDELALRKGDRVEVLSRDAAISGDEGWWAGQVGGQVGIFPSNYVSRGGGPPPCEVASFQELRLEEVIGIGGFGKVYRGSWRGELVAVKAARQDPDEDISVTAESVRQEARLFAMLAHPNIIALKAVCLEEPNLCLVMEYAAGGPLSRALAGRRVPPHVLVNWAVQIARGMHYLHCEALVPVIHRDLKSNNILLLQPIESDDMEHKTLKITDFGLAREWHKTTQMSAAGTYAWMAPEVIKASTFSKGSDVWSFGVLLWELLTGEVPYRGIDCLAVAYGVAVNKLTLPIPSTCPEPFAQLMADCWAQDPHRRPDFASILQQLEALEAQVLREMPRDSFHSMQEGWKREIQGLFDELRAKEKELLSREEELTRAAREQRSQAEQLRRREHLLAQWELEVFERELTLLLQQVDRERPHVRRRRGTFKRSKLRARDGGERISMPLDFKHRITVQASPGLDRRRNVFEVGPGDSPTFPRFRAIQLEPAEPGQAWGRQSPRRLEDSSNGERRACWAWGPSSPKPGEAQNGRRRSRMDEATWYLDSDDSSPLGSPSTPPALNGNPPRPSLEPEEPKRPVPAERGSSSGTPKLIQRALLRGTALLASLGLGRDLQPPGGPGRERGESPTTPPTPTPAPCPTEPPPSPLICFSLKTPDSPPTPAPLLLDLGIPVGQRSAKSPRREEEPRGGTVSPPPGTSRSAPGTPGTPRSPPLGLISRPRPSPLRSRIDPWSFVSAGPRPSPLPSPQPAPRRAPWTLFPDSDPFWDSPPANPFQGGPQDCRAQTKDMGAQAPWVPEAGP

[34] = target: Citron Rho-interacting kinase (Homo sapiens) (UniProt O14578); settings: Compound concentration 1000.0 nM
[35] = target: MAP kinase-activated protein kinase 5 (Homo sapiens) (UniProt Q8IW41); settings: Compound concentration 1000.0 nM
[36] = target: Tyrosine-protein kinase SYK (Homo sapiens) (UniProt P43405); settings: Compound concentration 1000.0 nM
[37] = target: Atypical kinase COQ8A, mitochondrial (Homo sapiens) (UniProt Q8NI60); settings: Compound concentration 1000.0 nM
[38] = target: Phosphatidylinositol 4,5-bisphosphate 3-kinase catalytic subunit beta isoform (Homo sapiens) (UniProt P42338); settings: Compound concentration 1000.0 nM
[39] = target: Tyrosine-protein kinase ZAP-70 (Homo sapiens) (UniProt P43403); settings: Compound concentration 1000.0 nM
[40] = target: Serine/threonine-protein kinase NIM1 (Homo sapiens) (UniProt Q8IY84); settings: Compound concentration 1000.0 nM
Sequence of Serine/threonine-protein kinase NIM1 (Homo sapiens) (Q8IY84 whole entry): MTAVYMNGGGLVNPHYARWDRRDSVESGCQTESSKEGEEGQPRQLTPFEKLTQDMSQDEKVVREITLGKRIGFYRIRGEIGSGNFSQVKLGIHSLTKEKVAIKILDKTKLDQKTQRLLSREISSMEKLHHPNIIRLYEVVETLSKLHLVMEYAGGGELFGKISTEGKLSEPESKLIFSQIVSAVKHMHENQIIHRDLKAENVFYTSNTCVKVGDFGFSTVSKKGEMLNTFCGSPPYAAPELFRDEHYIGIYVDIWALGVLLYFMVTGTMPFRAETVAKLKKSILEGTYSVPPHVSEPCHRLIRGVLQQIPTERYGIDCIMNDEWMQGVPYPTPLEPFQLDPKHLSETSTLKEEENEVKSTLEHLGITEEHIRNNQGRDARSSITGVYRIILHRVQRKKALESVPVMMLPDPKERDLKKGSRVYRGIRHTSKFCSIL

[41] = target: Vascular endothelial growth factor receptor 2 (Homo sapiens) (UniProt P35968); settings: Compound concentration 1000.0 nM
[42] = target: Serine/threonine-protein kinase TAO1 (Homo sapiens) (UniProt Q7L7X3); settings: Compound concentration 1000.0 nM
[43] = system: Tyrosine-protein kinase ABL1 (Homo sapiens), P00519 [H396P]; settings: Compound concentration 1000.0 nM
[44] = target: TGF-beta receptor type-1 (Homo sapiens) (UniProt P36897); settings: Compound concentration 1000.0 nM
[45] = target: Serine/threonine-protein kinase PAK 1 (Homo sapiens) (UniProt Q13153); settings: Compound concentration 1000.0 nM

Sequence of Sigma intracellular receptor 2 (Q5BJF2 whole entry): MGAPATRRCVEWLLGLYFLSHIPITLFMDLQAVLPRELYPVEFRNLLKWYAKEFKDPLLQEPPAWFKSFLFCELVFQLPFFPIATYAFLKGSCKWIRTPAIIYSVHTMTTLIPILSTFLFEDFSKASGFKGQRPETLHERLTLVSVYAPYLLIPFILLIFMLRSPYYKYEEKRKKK

CC(C)(C)OC(=O)N1CCCC1CNC1CCC(c2cc(F)ccc2F)(S(=O)(=O)c2ccc(Cl)cc2)CC1 (stereo not given) [GSI-NC]
959 nM: Ki [1]

O=S(=O)(NC1CCC(c2cc(F)ccc2F)(S(=O)(=O)c2ccc(Cl)cc2)CC1)C(F)(F)F (stereo not given) [MRK-560]
active: IC50 [31] < 0.5 nM | residual activity [34] 0%
inactive: residual activity [2] 93% | residual activity [3] 85% | residual activity [4] 100% | residual activity [5] 89% | residual activity [6] 92% | residual activity [7] 100% | residual activity [8] 88% | residual activity [9] 87% | residual activity [10] 84% | residual activity [11] 86% | residual activity [12] 100% | residual activity [13] 65% | residual activity [14] 100% | residual activity [15] 95% | residual activity [16] 98% | residual activity [17] 94% | residual activity [18] 100% | residual activity [19] 100% | residual activity [20] 100% | residual activity [21] 100% | residual activity [22] 83% | residual activity [23] 100% | residual activity [24] 77% | residual activity [25] 100% | residual activity [26] 93% | residual activity [27] 100% | residual activity [28] 100% | residual activity [29] 100% | residual activity [30] 84% | residual activity [32] 91% | residual activity [33] 100% | residual activity [35] 93% | residual activity [36] 89% | residual activity [37] 99% | residual activity [38] 100% | residual activity [39] 100% | residual activity [40] 80% | residual activity [41] 100% | residual activity [42] 100% | residual activity [43] 100% | residual activity [44] 100% | residual activity [45] 93%

Source: ChEMBL document CHEMBL4507288 (2021)
